From patent US11633370B2, “Use of scavengers of reactive gamma-ketoaldehydes to extend cell lifespan and healthspan” (Vanderbilt University, priority 2016, dated 2023)

How the values were obtained:
VC199 [sir-2.1(ok434)] = test: Lipofuscin autofluorescence measurement, VC199; assay type: in vivo, C. elegans; details: increasing concentrations of SA, day 15; p=0.50
Protocol: As with the N2 strain, the present inventors treated VC199 nematodes with increasing concentrations of SA and assessed the age-dependent accumulation of autofluorescent lipofuscin granules and decrease in pharyngeal pumping rate.
Synchronized late L4/early young adult worms were plated on FUDR containing SA-OP50-seeded NGM plates and worms were maintained at 20° C. Every fifth day, 10-15 worms were mounted onto 2% agar pads and anesthetized with 3 mM levamisole in DMSO. Images were taken at 250-ms exposure under a DAPI filter using an epifluorescence microscope (Nikon Eclipse 80i) equipped with a Lambda LS Xenon lamp (Sutter Instrument Company) and Nikon Plan Fluor 20× dry and Nikon Plan Apo 60×1.3 oil objectives. The fluorescence was calculated using ImageJ software.

MnSOD = test: Western blot of acetyl-Lys 122 MnSOD; assay type: in vivo, C. elegans; details: 500 μM SA, day 15; WT N2 compared to VC199 treated with the same dose; P>0.05
Excerpt: One of the major stimuli for activation of sirtuins is oxidative stress. […] Indeed, the mitochondrial antioxidant manganese superoxide dismutase (MnSOD) has been identified as one of the major protein targets that is deacetylated by sirtuin isoforms, with deacetylation enhancing the enzymatic activity of MnSOD [60]. If SA indeed preserves SIR-2.1 enzymatic function in vivo, the present inventors hypothesized that SA treatment would dose-dependently decrease biomarkers of oxidant injury in a SIR-2.1-dependent manner. To quantify oxidant injury, the present inventors measured F3-isoprostanes (F3-IsoPs). F3-IsoPs are the products of free radical-mediated peroxidation of eicosapentaenoic acid (EPA), and are known to be a highly sensitive and accurate marker of oxidative damage in Caenorhabditis elegans. F3—IsoPs were collected from WT N2 and from VC199 (SIR-2.1 deficient strain) nematodes grown on OP50-NGM agar plates containing increasing concentrations of SA from Day 1 of adulthood until collection at Day 15. […] To further characterize SA's ability to preserve SIR-2.1 function, the present inventors assessed acetylation of MnSOD at Lys 122.
Day 15 adult worms grown on FUDR containing SA-OP50-seeded NGM plates were harvested in M9 medium, followed by floatation on an ice-cold 60% w/v sucrose gradient to segregate clean bacteria-free adult worms from bacterial debris. […]

N2 WT C. elegans = test: Real-time RT-PCR (TaqMan) gene expression, N2; assay type: in vivo; details: p<0.05
Excerpt: First, to validate the microarray results, the present inventors performed real-time RT-PCR on four genes, siah-1, sma-4, F13D12.6, and ets-7 (FIG. 6B). […] Messenger RNA levels for siah-1 and sma-4 were decreased by nearly 25%, as well as F13D12.6 and ets-7 were increased by nearly 25% by SA administration (p<0.05). Pathway Analysis using Gene Ontology (GO) with WEB-based Gene SeT Analysis Toolkit (WEBGESTALT <http://bioinfo.vanderbilt.edu/webgestalt/>) highlighted the metabolic process, lipid metabolic process, proteolysis pathways among many others as being altered favorably by the administration of SA (see Supplemental Data). From the array data confirmed by RT-PCR, the present inventors identified the ETS class transcription factor ETS-7 as a protein of interest. ETS factors are known to be involved in regulating lipid metabolism and regulate lifespan in both Drosophila melanogaster and C. elegans. To investigate the role of ETS-7 in regulating lifespan downstream from salicylamine, SA was administered to the ets-7 gene knock-out strain, RB981 [F19F10.5(ok888) V]). […] The present inventors originally hypothesized that upregulation of ets-7 depends on SIR-2.1, which could result in enhanced longevity. In order to test this, the present inventors carried out real-time RT-PCR quantification of ets-7 in non-functional SIR-2.1 mutant nematodes treated with increasing doses of SA (FIG. 6E).
Total RNA was isolated via the Trizol method, as described previously. Following isolation, 2 μg total RNA was used for cDNA synthesis using the High Capacity cDNA Reverse Transcription Kit (Life Technologies), per manufacturer's instructions. Quantitative real time PCR (Bio-Rad) was conducted using TaqMan Gene Expression Assay Probes (Life Technologies) for each gene. Amplified products was normalized to housekeeping gene, ama-1 (RNA polymerase II) after determining fold difference using the comparative 2^−ΔΔct method. The following probes were used: ama-1 (Assay ID: Ce2462269_m1), ets-7 (Ce02477624_g1), F13D12.6 (Ce02439540_m1), siah-1 (Assay ID: Ce02462269_m1), and sma-4 (Assay ID: Ce202447346_1).

mice [1] = details: administering SA in mice; cited from earlier work
mice [2] = details: cited from earlier work

## NCc1ccccc1O [SA, salicylamine]
VC199 [sir-2.1(ok434)]
  accumulation of lipofuscin: none of the doses of SA used were able to decrease the accumulation of lipofuscin
MnSOD
  acetyl-Lys 122 in MnSOD: trend toward lower acetyl-Lys 122
N2 WT C. elegans; 500 μM SA, Day 15 WT N2
  increase in ets-7 messenger RNA level: 32%
N2 WT C. elegans; Day 15 WT N2, SA administration
  increase in ets-7 messenger RNA level: 25%
N2 WT C. elegans; Day 15 WT N2
  decrease in siah-1 messenger RNA level: ~25%
  decrease in sma-4 messenger RNA level: ~25%
  increase in F13D12.6 messenger RNA level: ~25%
Mice [1]
  age-related loss of working memory: prevents the age-related loss of working memory
Mice [2]; approximately one year, via drinking water
  tolerability, adverse events: no evidence of intolerance and no evidence of excess adverse events
Mice [2]; long-term SA treatment
  tumor formation: No excess tumor formation
